Columns and labels:
[1] = 100.7 kPa, Liquid; for speed of sound: Frequency=3 MHz, Sing-around technique in a fixed-path interferometer; for mass density: Vibrating tube method
[2] = refractive index (Na D-line) (dimensionless); settings: 100.7 kPa, Liquid, Standard Abbe refractometry
[3] = xn = mol fraction of the nth substance listed; settings: 100.7 kPa, Liquid, x2 = 0; for speed of sound: Frequency=3 MHz, Sing-around technique in a fixed-path interferometer; for mass density: Vibrating tube method
[4] = refractive index (Na D-line) (dimensionless); xn = mol fraction of the nth substance listed; settings: 100.7 kPa, Liquid, Standard Abbe refractometry, x2 = 0

CCCCCCCC[n+]1ccn(C)c1.F[P-](F)(F)(F)(F)F [1-octyl-3-methylimidazolium hexafluorophosphate]
Settings	mass density, [1] [kg/m3]	refractive index, [2]	speed of sound, [1] [m/s]
293.15 K	1238.77	1.42441	1421.2
298.15 K	1234.79	1.42312	1406.5
303.15 K	1230.84	1.42171	1392.4
308.15 K	1227.09	1.42029	1379
313.15 K	1223.3	1.41888	1365.8
318.15 K	1219.5	1.4175	1351.2
323.15 K	1215.42	1.41601	1338

C1CCOC1 [tetrahydrofuran] + CCCCCCn1cc[n+](C)c1.F[P-](F)(F)(F)(F)F
Settings	mass density, [3] [kg/m3]	refractive index, [4]	speed of sound, [3] [m/s]
293.15 K	888.766	1.40696	1305
298.15 K	883.297	1.4042	1280.8
303.15 K	877.809	1.40157	1256.8
308.15 K	872.279	1.39885	1232.9
313.15 K	866.713	1.39623	1209.2
318.15 K	861.106	1.39349	1185.7
323.15 K	855.456	1.39083	1162.3

C1CCOC1 [tetrahydrofuran]
Settings	mass density, [1] [kg/m3]	refractive index, [2]	speed of sound, [1] [m/s]
293.15 K	888.766	1.40696	1305
298.15 K	883.297	1.4042	1280.8
303.15 K	877.809	1.40157	1256.8
308.15 K	872.279	1.39885	1232.9
313.15 K	866.713	1.39623	1209.2
318.15 K	861.106	1.39349	1185.7
323.15 K	855.456	1.39083	1162.3

CCCCn1cc[n+](C)c1.F[P-](F)(F)(F)(F)F [1-butyl-3-methylimidazolium hexafluorophosphate]
Settings	mass density, [1] [kg/m3]	refractive index, [2]	speed of sound, [1] [m/s]
293.15 K	1370.41	1.41068	1454.6
298.15 K	1366.26	1.40943	1442.3
303.15 K	1362.13	1.40818	1430.2
308.15 K	1357.86	1.40693	1418.4
313.15 K	1353.88	1.40567	1406.7
318.15 K	1349.88	1.40443	1395.2
323.15 K	1345.57	1.40312	1384.1

C1CCOC1 [tetrahydrofuran] + CCCCCCCC[n+]1ccn(C)c1.F[P-](F)(F)(F)(F)F
Settings	mass density, [3] [kg/m3]	refractive index, [4]	speed of sound, [3] [m/s]
293.15 K	888.766	1.40696	1305
298.15 K	883.297	1.4042	1280.8
303.15 K	877.809	1.40157	1256.8
308.15 K	872.279	1.39885	1232.9
313.15 K	866.713	1.39623	1209.2
318.15 K	861.106	1.39349	1185.7
323.15 K	855.456	1.39083	1162.3

CCCCCCn1cc[n+](C)c1.F[P-](F)(F)(F)(F)F [1-hexyl-3-methylimidazolium hexafluorophosphate]
Settings	mass density, [1] [kg/m3]	refractive index, [2]	speed of sound, [1] [m/s]
293.15 K	1296.72	1.41958	1437.7
298.15 K	1292.62	1.41832	1424.3
303.15 K	1288.61	1.41692	1411.5
308.15 K	1284.72	1.41564	1399
313.15 K	1280.82	1.41422	1386.9
318.15 K	1276.37	1.41306	1375
323.15 K	1272.45	1.41175	1363.3

C1CCOC1 [tetrahydrofuran] + CCCCn1cc[n+](C)c1.F[P-](F)(F)(F)(F)F
Settings	mass density, [3] [kg/m3]	refractive index, [4]	speed of sound, [3] [m/s]
293.15 K	888.766	1.40696	1305
298.15 K	883.297	1.4042	1280.8
303.15 K	877.809	1.40157	1256.8
308.15 K	872.279	1.39885	1232.9
313.15 K	866.713	1.39623	1209.2
318.15 K	861.106	1.39349	1185.7
323.15 K	855.456	1.39083	1162.3

From the NIST ThermoML archive (doi:10.1016/j.jct.2015.02.011)
